Measured values reported in US20210395327A1, “Growth Hormone-Releasing Hormone Antagonists and Uses Thereof” (United States Government As Represented By The Department …, priority 2019, published 2021).
Like-named read-outs stand apart in the source and are kept apart here. Non-standard residues stand in square brackets, D forms with d. Residues, ends and D or L forms follow the SMILES beside them. *: point of attachment. Phe(F5) = N[C@@H](Cc1c(F)c(F)c(F)c(F)c1F)C(=O)O; Phe(4-Cl) = N[C@@H](Cc1ccc(Cl)cc1)C(=O)O; hArg = N=C(N)NCCCC[C@H](N)C(=O)O; 12Ado = NCCCCCCCCCCCC(=O)O; Nle = CCCC[C@H](N)C(=O)O; Orn = NCCC[C@H](N)C(=O)O; Abu = CC[C@H](N)C(=O)O; PhAc = O=C(Cc1ccccc1)*

Columns and labels:
[1] = system: KATOIII stomach cancer cells; experiment: In vitro cell viability, KATOIII; type: cell-based, human; settings: antagonist 5 μM for 72 h, cell proliferation assay; MIA602 = 1
Summary of the method: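 Cells grown to ~60% confluence, serum-starved 24 h in 0.5% FBS, then treated with antagonists at 1, 2.5 or 5 μM or vehicle (0.1% DMSO) in quintuplicate for 72 h, medium replaced every 48 h. Viability read by MTS-type CellTiter 96 AQueous One assay; expressed as inhibitory potency relative to MIA602.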

[2] = system: CFPAC-1 pancreatic cancer cells; experiment: In vitro cell viability, CFPAC-1; type: cell-based, human; settings: antagonist 5 μM for 72 h, cell proliferation assay; MIA602 = 1
Method: (§1) The inhibitory effects of the various synthesized GHRH antagonists were tested in cell proliferation assays in various human cancer cell lines including stomach cancer (KATOIII, N87), colon cancer (HT-29), urothelial cancer (J82, RT4), pancreatic cancer (PANC-1, CFPAC-1), prostatic cancer (PC3), breast cancer (MX-1, HCC1806), ovarian cancer (SK-OV-3, OVCAR-3) and lung cancer (HCC827, H460).
(§2) Cell culture. Human cancer cell lines including pancreatic (PANC-1 and CFPAC-1), lung (HCC827 and H460), stomach (NCI-N87 and KATOIII), urothelial (J82, RT4), prostatic (PC3), breast (MX-1 and HCC 1806), colorectal (HT-29), and ovarian (SK-OV-3 and OVCAR-3) were obtained from the American Type Culture Collection (ATCC) and cultured at 37° C. in a humidified 95% air/5% CO2 atmosphere in the medium recommended by ATCC.
(§3) In vitro cell viability. Cell viability was analyzed as follows: cancer cells including pancreatic (PANC-1 and CFPAC-1), lung (HCC827 and H460), stomach (NCI-N87 and KATOIII), urothelial (J82, RT4), prostatic (PC3) and breast (MX-1 and HCC 1806), colorectal (HT-29) and ovarian (SK-OV-3 and OVCAR-3) were grown on 96 well plates to ˜60% confluence, the cells were starved for 24 h in culture medium containing 0.5% FBS. Cells were then treated with GHRH antagonists MIA602 AVR compounds at concentrations of 1, 2.5 or 5 μM, or vehicle (0.1% DMSO) in quintuplicates for 72 hours. The medium was replaced every 48 hours. Cell viability was measured using CellTiter 96 aqueous one solution kit (Promega). Inhibitory effects of tested AVR compounds in comparison to that of MIA602 are presented as inhibitory potency.
(§4) Inhibitory effects of selected AVR compounds in comparison to that of MIA602 are presented as inhibitory potency (e.g., percentage of inhibition). […] The cell lines tested including lung cancer HCC827 (FIG. 2A), pancreatic cancer CFPAC-1 (FIG. 2B), stomach cancer N87 (FIG. 2C), colon cancer HT-29 (FIG. 2D), breast cancers MX-1 and HCC1806 (FIGS. 2 E, F). Based on the results of cell proliferation assay after cancer cells were treated with antagonist at concentration of 5 μM for 72H, the relative inhibitory potency of AVR antagonists in comparison to MIA-602 is summarized in Table 3 A and B. Over 60 AVR compounds were tested in 12 cancer cell lines.
(§5) Based on the results of cell proliferation assay after cancer cells were treated with antagonist at concentration of 5 µM for 72H, * at concentration of 2 µM for 72 H.

[3] = system: PANC-1 pancreatic cancer cells; experiment: In vitro cell viability, PANC-1; type: cell-based, human; settings: antagonist 5 μM for 72 h, cell proliferation assay; MIA602 = 1
Method: as §1, §2, §3, §4

[4] = system: PC3 prostatic cancer cells; experiment: In vitro cell viability, PC3; type: cell-based, human; settings: antagonist 5 μM for 72 h, cell proliferation assay; MIA602 = 1
Method: as §1, §2, §3
(§6) Inhibitory effects of selected AVR compounds in comparison to that of MIA602 are presented as inhibitory potency (e.g., percentage of inhibition). […] The cell lines tested including lung cancer HCC827 (FIG. 2A), pancreatic cancer CFPAC-1 (FIG. 2B), stomach cancer N87 (FIG. 2C), colon cancer HT-29 (FIG. 2D), breast cancers MX-1 and HCC1806 (FIGS. 2 E, F). […]

[5] = system: HCC1806 breast cancer cells; experiment: In vitro cell viability, HCC1806; type: cell-based, human; settings: antagonist 5 μM for 72 h, cell proliferation assay; MIA602 = 1
Method: as §1, §2, §3, §4, §5

MX-1 breast cancer cells = experiment: In vitro cell viability, MX-1; type: cell-based, human; settings: antagonist 5 μM for 72 h, cell proliferation assay; MIA602 = 1
Method: as §1, §2, §3, §4, §5

[6] = target: T1, membrane GHRH-receptors on human anterior pituitary cells (Homo sapiens, UniProt Q02643); experiment: Receptor binding, displacement of 125I-[His1,Nle27]-hGH-RH(1-32)NH2 on human pituitary membranes
T1 construct: Human pituitary was purchased from the National Hormone and Peptide Program; tissue National Hormone and Peptide Program; host or cells: human pituitary (membrane fractions)
T1 sequence (Q02643 23-423): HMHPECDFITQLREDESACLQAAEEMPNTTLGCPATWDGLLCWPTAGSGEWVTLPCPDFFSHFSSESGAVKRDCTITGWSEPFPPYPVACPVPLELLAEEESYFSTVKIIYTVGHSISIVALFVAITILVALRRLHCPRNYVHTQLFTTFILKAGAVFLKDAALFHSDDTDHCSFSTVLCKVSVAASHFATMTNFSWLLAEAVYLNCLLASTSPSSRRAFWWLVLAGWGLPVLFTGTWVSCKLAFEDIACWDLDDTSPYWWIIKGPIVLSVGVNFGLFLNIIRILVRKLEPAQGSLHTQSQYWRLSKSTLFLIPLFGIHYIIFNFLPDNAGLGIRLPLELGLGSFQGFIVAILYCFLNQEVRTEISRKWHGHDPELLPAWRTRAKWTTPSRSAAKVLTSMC
Summary of the method: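 Membrane fractions from human pituitary; peptides displace 125I-[His1,Nle27]-hGH-RH(1-32)NH2. IC50 is the dose giving 50% inhibition of specific binding, from duplicate tubes. Relative affinity is the ratio of test IC50 to hGH-RH(1-29)NH2 IC50.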

[7] = system: NCI-N87 stomach cancer cells; experiment: In vitro cell viability (CellTiter 96), N87; type: cell-based, human; settings: antagonist 5 μM for 72 h, cell proliferation assay; MIA602 = 1
Method: as §1, §2, §3, §4, §5

HCC827 lung cancer cells = experiment: In vitro cell viability, HCC827; type: cell-based, human; settings: antagonist 5 μM for 72 h, cell proliferation assay; MIA602 = 1
Method: as §1, §2, §3, §4, §5

[8] = system: J82 urothelial cancer cells; experiment: In vitro cell viability, J82; type: cell-based, human; settings: antagonist 5 μM for 72 h, cell proliferation assay; MIA602 = 1
Method: as §1, §2, §3, §4

[9] = system: RT4 urothelial cancer cells; experiment: In vitro cell viability, RT4; type: cell-based, human; settings: antagonist 5 μM for 72 h, cell proliferation assay; MIA602 = 1
Method: as §1, §2, §3, §6

Row | SMILES | relative inhibitory potency in comparison to MIA-602, Stomach KATOIII [1] | relative inhibitory potency in comparison to MIA-602, Pancreatic CFPAC-1 [2] | relative inhibitory potency in comparison to MIA-602, Pancreatic Panc-1 [3] | relative inhibitory potency in comparison to MIA-602, Prostatic PC3 [4] | relative inhibitory potency in comparison to MIA-602, Breast IICC1806 [5] | relative inhibitory potency in comparison to MIA-602, Breast MX-1 (MX-1 breast cancer cells) | IC50 [6] | relative inhibitory potency in comparison to MIA-602, Stomach N87 [7] | relative inhibitory potency in comparison to MIA-602, Lung IICC827 (HCC827 lung cancer cells) | relative inhibitory potency in comparison to MIA-602, Urothelial J82 [8] | relative inhibitory potency in comparison to MIA-602, Urothelial RT4 [9] | IC50 ([6]; membrane receptors on human anterior pituitary cells, mean of two to three determinations, read-out: IC50)
1 | CCCC[C@H](NC(=O)[C@@H](NC(=O)[C@H](CC(=O)O)NC(=O)[C@H](CCC(N)=O)NC(=O)[C@H](CC(C)C)NC(=O)[C@H](CC(C)C)NC(=O)[C@H](CCCCN)NC(=O)[C@H](CCCNC(=N)N)NC(=O)[C@H](C)NC(=O)[C@H](CO)NC(=O)[C@H](CC(C)C)NC(=O)[C@H](CCC(N)=O)NC(=O)[C@H](CC)NC(=O)[C@H](CC(C)C)NC(=O)[C@@H](NC(=O)[C@H](CCCCN)NC(=O)[C@H](CCCNC(=N)N)NC(=O)[C@H](Cc1ccc(O)cc1)NC(=O)[C@H](CCCNC(=N)N)NC(=O)[C@H](C)NC(=O)[C@@H](NC(=O)[C@H](Cc1ccc(Cl)cc1)NC(=O)[C@@H](NC(=O)[C@H](C)NC(=O)[C@H](CC(=O)O)NC(=O)[C@@H](CCCNC(=N)N)NC(=O)[C@H](Cc1ccc(O)cc1)NC(=O)CCCCCCCCCCCNC(=O)Cc1ccccc1)[C@@H](C)CC)[C@@H](C)O)C(C)C)[C@@H](C)CC)C(=O)N[C@H](CCCNC(=N)N)C(=O)N[C@@H](CCCCNC(=N)N)C(N)=O [AVR-107, PhAC-Ada-Tyr-DArg-Asp-Ala-Ile-Cpa-Thr-Ala-Arg-Tyr-Arg-Lys-Val-Leu-Abu-Gln-Leu-Ser-Ala-Arg-Lys-Leu-Leu-Gln-Asp-Ile-Nle-DArg-Har-NH2] ({PhAc-12Ado}-Y[dR]DAI[Phe(4-Cl)]TARYRKVL[Abu]QLSARKLLQDI[Nle][dR][hArg]-NH2) | 1.295 | 1.080 | 1.160 | 0.800 | 0.950 | 1.010 | 0.61 nM |  |  |  |  | 
2 | CCCC[C@H](NC(=O)[C@@H](NC(=O)[C@H](CC(=O)O)NC(=O)[C@H](CCC(N)=O)NC(=O)[C@H](CC(C)C)NC(=O)[C@H](CC(C)C)NC(=O)[C@H](CCCN)NC(=O)[C@H](Cc1c[nH]cn1)NC(=O)[C@H](C)NC(=O)[C@H](CO)NC(=O)[C@H](CC(C)C)NC(=O)[C@H](CCC(N)=O)NC(=O)[C@H](CC)NC(=O)[C@H](CC(C)C)NC(=O)[C@@H](NC(=O)[C@H](CCCCN)NC(=O)[C@H](CCCNC(=N)N)NC(=O)[C@H](Cc1c(F)c(F)c(F)c(F)c1F)NC(=O)[C@H](CCCNC(=N)N)NC(=O)[C@H](C)NC(=O)[C@@H](NC(=O)[C@H](Cc1ccc(Cl)cc1)NC(=O)[C@@H](NC(=O)[C@H](C)NC(=O)[C@H](CC(=O)O)NC(=O)[C@@H](CCCNC(=N)N)NC(=O)[C@H](Cc1ccc(O)cc1)NC(=O)CCCCCCCCCCCNC(=O)Cc1ccccc1)[C@@H](C)CC)[C@@H](C)O)C(C)C)[C@@H](C)CC)C(=O)N[C@H](CCCNC(=N)N)C(=O)N[C@@H](CCCCNC(=N)N)C(N)=O [AVR-116, PhAC-Ada-Tyr-DArg-Asp-Ala-Ile-Cpa-Thr-Ala-Arg-5FPhe-Arg-Lys-Val-Leu-Abu-Gln-Leu-Ser-Ala-His-Orn-Leu-Leu-Gln-Asp-Ile-Nle-DArg-Har-NH2] ({PhAc-12Ado}-Y[dR]DAI[Phe(4-Cl)]TAR[Phe(F5)]RKVL[Abu]QLSAH[Orn]LLQDI[Nle][dR][hArg]-NH2) | 1.202 | 1.445 | 1.208 |  |  |  | 0.5 nM | 2.484 | 2.470 | 3.034 |  | 
3 | CCCC[C@H](NC(=O)[C@@H](NC(=O)[C@H](CC(=O)O)NC(=O)[C@H](CCC(N)=O)NC(=O)[C@H](CC(C)C)NC(=O)[C@H](CC(C)C)NC(=O)[C@H](CCCN)NC(=O)[C@H](Cc1c[nH]cn1)NC(=O)[C@H](C)NC(=O)[C@H](CO)NC(=O)[C@H](CC(C)C)NC(=O)[C@H](CCC(N)=O)NC(=O)[C@H](CC)NC(=O)[C@H](CC(C)C)NC(=O)[C@@H](NC(=O)[C@H](CCCCN)NC(=O)[C@H](CCCNC(=N)N)NC(=O)[C@H](Cc1ccc(OC)cc1)NC(=O)[C@H](CCCNC(=N)N)NC(=O)[C@H](C)NC(=O)[C@@H](NC(=O)[C@H](Cc1ccc(Cl)cc1)NC(=O)[C@@H](NC(=O)[C@H](C)NC(=O)[C@H](CC(=O)O)NC(=O)[C@@H](CCCNC(=N)N)NC(=O)[C@H](Cc1ccc(O)cc1)NC(=O)CCCCCCCCCCCNC(=O)[C@H](N)Cc1ccccc1)[C@@H](C)CC)[C@@H](C)O)C(C)C)[C@@H](C)CC)C(=O)N[C@H](CCCNC(=N)N)C(=O)N[C@@H](CCCCNC(=N)N)C(N)=O [AVR-120, D-Phe-Ada-Tyr-DArg-Asp-Ala-Ile-Cpa-Thr-Ala-Arg-Tyr(Me)-Arg-Lys-Val-Leu-Abu-Gln-Leu-Ser-Ala-His-Orn-Leu-Leu-Gln-Asp-Ile-Nle-DArg-Har-NH2] (H-[dF][12Ado]Y[dR]DAI[Phe(4-Cl)]TARY(Me)RKVL[Abu]QLSAH[Orn]LLQDI[Nle][dR][hArg]-NH2) | 1.271 | 1.617 | 1.306 |  |  |  |  | 2.339 | 1.423 | 4.841 | 1.611 | 0.48 nM
